Structures can show the parent of a compound that is named as a salt. Where two headings read alike, the source gives them in different places.
Columns and labels:
E. coli ATCC 25992 = experiment: In vitro MIC, agar dilution; format: cell-based; conditions: for MIC: Escherichia coli, ATCC25992, read-out: minimum inhibitory concentration (MIC)
How it was run: (§1)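 Test agent, dissolved in PBS pH 7.2 with Tween 20 or DMSO if needed, was mixed into molten Mueller-Hinton agar over a two-fold series topping at 128 μg/mL. Log-phase isolates were then spot-inoculated at ~10^4 cfu and incubated at 35-36 °C for 16-20 hours.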

E. faecalis ATCC 29212 = experiment: In vitro MIC, agar dilution; format: cell-based; conditions: for MIC: Enterococcus faecalis, ATCC29212, read-out: minimum inhibitory concentration (MIC)
How it was run: as §1

E. faecalis VanB(Van^R) = experiment: In vitro MIC, agar dilution; format: cell-based; conditions: for MIC: Enterococcus faecalis, read-out: minimum inhibitory concentration (MIC)
How it was run: as §1

E. faecium A491(Amp^R) = experiment: In vitro MIC, agar dilution; format: cell-based; conditions: for MIC: Enterococcus faecium, read-out: minimum inhibitory concentration (MIC)
How it was run: as §1

E. faecium ATCC 35667 = experiment: In vitro MIC, agar dilution; format: cell-based; conditions: for MIC: Enterococcus faecium, ATCC35667, read-out: minimum inhibitory concentration (MIC)
How it was run: as §1

E. faecium VanA(Van^R) = experiment: In vitro MIC, agar dilution; format: cell-based; conditions: for MIC: Enterococcus faecium, read-out: minimum inhibitory concentration (MIC)
How it was run: as §1

P. aeruginosa ATCC 27853 = experiment: In vitro MIC, agar dilution; format: cell-based; conditions: for MIC: Pseudomonas aeruginosa, ATCC27853, read-out: minimum inhibitory concentration (MIC)
How it was run: as §1

[1] = test system: S. aureus 76(Meth^R)(lac^+); experiment: In vitro MIC, agar dilution; format: cell-based; conditions: for MIC: Staphylococcus aureus, read-out: minimum inhibitory concentration (MIC)
How it was run: as §1

[2] = test system: S. aureus ATCC 13709(Meth^S); experiment: In vitro MIC, agar dilution; format: cell-based; conditions: for MIC: Staphylococcus aureus, ATCC13709, S. aureus ATCC 13709(Meth^S), read-out: minimum inhibitory concentration (MIC)
How it was run: as §1

S. aureus ATCC 29213 = experiment: In vitro MIC, agar dilution; format: cell-based; conditions: for MIC: Staphylococcus aureus, ATCC29213, read-out: minimum inhibitory concentration (MIC)
How it was run: as §1

[3] = test system: S. aureus ATCC 33593(Meth^R); experiment: In vitro MIC, agar dilution; format: cell-based; conditions: for MIC: Staphylococcus aureus, ATCC33593, read-out: minimum inhibitory concentration (MIC)
How it was run: as §1

[4] = test system: S. aureus PC1(Meth^S)(lac^+); experiment: In vitro MIC, agar dilution; format: cell-based; conditions: for MIC: Staphylococcus aureus, read-out: minimum inhibitory concentration (MIC)
How it was run: as §1

[5] = test system: S. aureus Spain #356(Meth^R); experiment: In vitro MIC, agar dilution; format: cell-based; conditions: for MIC: Staphylococcus aureus, read-out: minimum inhibitory concentration (MIC)
How it was run: as §1

[6] = test system: S. haemolyticus 05(Meth^R); experiment: In vitro MIC, agar dilution; format: cell-based; conditions: for MIC: Staphylococcus haemolyticus, read-out: minimum inhibitory concentration (MIC)
How it was run: as §1

[7] = test system: S. aureus Col(Meth^R)(lac^-); experiment: In vitro MIC, agar dilution; format: cell-based; conditions: for MIC: Staphylococcus aureus, read-out: minimum inhibitory concentration (MIC)
How it was run: (§2)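 Two-fold dilutions (128 to ≤0.25 μg/mL, in duplicate) were poured into Mueller-Hinton agar. Log-phase broth cultures were spot-inoculated at about 10^4 cfu per spot and incubated 35-36°C for 16-20 hours; the MIC was the lowest concentration inhibiting growth. Col is a high-level PBP2a producer; Col 8A is its isogenic PBP2a-lacking partner.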

[8] = test system: S. aureus Col8A(Meth^S)(lac^-); experiment: In vitro MIC, agar dilution; format: cell-based; conditions: S. aureus Col8A(Meth^S)(lac^-); for MIC: Staphylococcus aureus, read-out: minimum inhibitory concentration (MIC)
How it was run: as §2

[9] = test system: S. aureus strain ATCC 13709 (methicillin-susceptible); experiment: Murine model for lethal bacteremic peritonitis; format: in vivo, female Swiss-Webster mice; design: ED50: unit: mg/kg; conditions: SC, 72 h; for responders at 0.3125 mg/kg / responders at 0.625 mg/kg / responders at 2.5 mg/kg / responders at 5 mg/kg: read-out: Survivors; for responders at 1.25 mg/kg: read-out: Survivors (converted); for ED50: two equal doses, IP challenge
How it was run: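 Female Swiss-Webster mice were challenged IP with an LD100 inoculum in 7% hog gastric mucin, then given test drug subcutaneously in twofold increments (0.01–512 mg/kg) as two equal doses at challenge and 2 h later, 10 mice per group. Survival was scored at 72 h; PD50 (total mg/kg) was derived by probit.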

[10] = Staphylococcus aureus, ATCC13709, Dose 0.3125 mg/kg
[11] = Staphylococcus aureus, ATCC13709, Dose 0.625 mg/kg
[12] = Staphylococcus aureus, ATCC13709, Dose 1.25 mg/kg
[13] = Staphylococcus aureus, ATCC13709, Dose 2.5 mg/kg
[14] = Staphylococcus aureus, ATCC13709
[15] = Staphylococcus aureus, ATCC13709, read-out: ED50

NC(=O)[C@@H](N)CSCc1cnccc1SC1=C(C(=O)O)N2C(=O)[C@@H](NC(=O)/C(=N\O)c3nc(N)sc3Cl)[C@H]2SC1 [Cmpd 59, (7R)-7-[(Z)-2-(2-amino-5-chlorothiazol-4-yl)-2-(hydroxyimino)acetamido]-3-(3-(2R-2-carboxamido-2-aminoethylthiomethyl)pyrid-4-ylthio)-3-cephem-4-carboxylate, trifluoroacetic acid salt]
MIC (E. coli ATCC 25992): 8 µg/mL | MIC (E. faecalis ATCC 29212): 0.5 µg/mL | MIC (E. faecalis VanB(Van^R)): 0.5 µg/mL | MIC (E. faecium A491(Amp^R)): 16 µg/mL | MIC (E. faecium ATCC 35667): 1 µg/mL | MIC (E. faecium VanA(Van^R)): 2 µg/mL | MIC (P. aeruginosa ATCC 27853): > 32 µg/mL | MIC [1]: 2 µg/mL | MIC [2]: 0.13 µg/mL | MIC (S. aureus ATCC 29213): 0.5 µg/mL | MIC [3]: 2 µg/mL | MIC [4]: 0.5 µg/mL | MIC [5]: 4 µg/mL | MIC [6]: 4 µg/mL | MIC [7]: 2 µg/mL | MIC [8]: 0.25 µg/mL | responders at 0.3125 mg/kg [9, 10]: 40% | responders at 0.625 mg/kg [9, 11]: 60% | responders at 1.25 mg/kg [9, 12]: 40% | responders at 2.5 mg/kg [9, 13]: 40% | responders at 5 mg/kg [9, 14]: 100% | ED50 [9, 15]: 0.81 mg/kg

Nc1nc(/C(=N/O)C(=O)N[C@@H]2C(=O)N3C(C(=O)O)=C(Sc4ccncc4SCCNC=O)CS[C@H]23)c(Cl)s1 [Cmpd 64, (7R)-7-[(Z)-2-(2-amino-5-chlorothiazol-4-yl)-2-(hydroxyimino)acetamido]-3-(3-(N-formylaminoethylthio)pyrid-4-ylthio)-3-cephem-4-carboxylate, trifluoroacetic acid salt]
MIC (E. coli ATCC 25992): 8 µg/mL | MIC (E. faecalis ATCC 29212): 0.25 µg/mL | MIC (E. faecalis VanB(Van^R)): 0.5 µg/mL | MIC (E. faecium A491(Amp^R)): 16 µg/mL | MIC (E. faecium ATCC 35667): 1 µg/mL | MIC (E. faecium VanA(Van^R)): 2 µg/mL | MIC (P. aeruginosa ATCC 27853): > 32 µg/mL | MIC [1]: 4 µg/mL | MIC [2]: 0.25 µg/mL | MIC (S. aureus ATCC 29213): 0.25 µg/mL | MIC [3]: 2 µg/mL | MIC [4]: 0.5 µg/mL | MIC [5]: 4 µg/mL | MIC [6]: 4 µg/mL | MIC [7]: 2 µg/mL | MIC [8]: 0.25 µg/mL | responders at 0.3125 mg/kg [9, 10]: 10% | responders at 0.625 mg/kg [9, 11]: 10% | responders at 1.25 mg/kg [9, 12]: 40% | responders at 2.5 mg/kg [9, 13]: 40% | responders at 5 mg/kg [9, 14]: 80% | ED50 [9, 15]: 2.27 mg/kg

(7R)-7-[(Z)-2-(aminothiazol-4-yl)-2-(hydroxyimino)acetamido]-3-[(methylaminoethylaminoethylthiomethyl)-1,2,3-thiadiazol-5-ylthio]-3-cephem-4-carboxylate, trifluoroacetic acid salt [Cmpd 11]
minimum inhibitory concentration (MIC) (E. coli ATCC 25992): 8 µg/mL | minimum inhibitory concentration (MIC) (E. faecalis ATCC 29212): 0.25 µg/mL | minimum inhibitory concentration (MIC) (E. faecalis VanB(Van^R)): 0.5 µg/mL | minimum inhibitory concentration (MIC) (E. faecium A491(Amp^R)): > 32 µg/mL | minimum inhibitory concentration (MIC) (E. faecium ATCC 35667): 2 µg/mL | minimum inhibitory concentration (MIC) (E. faecium VanA(Van^R)): 4 µg/mL | minimum inhibitory concentration (MIC) (P. aeruginosa ATCC 27853): > 32 µg/mL | minimum inhibitory concentration (MIC) [1]: 8 µg/mL | minimum inhibitory concentration (MIC) ([2]; S. aureus ATCC 13709(Meth^S)): 0.5 µg/mL | minimum inhibitory concentration (MIC) (S. aureus ATCC 29213): 0.5 µg/mL | minimum inhibitory concentration (MIC) [3]: 4 µg/mL | minimum inhibitory concentration (MIC) [4]: 1 µg/mL | minimum inhibitory concentration (MIC) [5]: 8 µg/mL | minimum inhibitory concentration (MIC) [6]: 4 µg/mL | minimum inhibitory concentration (MIC) [7]: 4 µg/mL | minimum inhibitory concentration (MIC) [8]: 1 µg/mL | Survivors ([9]; Dose 0.156 mg/kg): 1/10 | Survivors ([9]; Dose 0.3125 mg/kg): 1/10 | Survivors ([9]; Dose 0.625 mg/kg): 3/10 | Survivors ([9]; Dose 1.25 mg/kg): 5/10 | Survivors ([9]; Dose 2.5 mg/kg): 6/10 | ED50 [9]: 0.96 mg/kg

From US6087355A, “Cephalosporin antibiotics” (Microcide Pharmaceuticals, Inc., priority 1996, dated 2000)
